Test results as given in patent US20040208783A1, “Process for the chemical and thermal disinfection” (priority 2003, published 2004).

What was measured:
Type in all cases: cell-based
[1] = system: Mycobacterium terrae (ATCC15755); test: Mycobacterium terrae quantitative suspension test without stress (Test 2); conditions: for Reduction factor: 0.1%
Escherichia coli = test: Quantitative suspension test, reduction factors (Test 1)
Description: (§1) Reduction factors were obtained with various solutions for use (SA=Staphylococcus aureus, PA=Pseudomonas aeruginosa, EC=Escherichia coli, CA=Candida albicans, AN=Aspergillus niger, MT=Mycobacterium terrae), initial microbe count 0.8−5×10^9/ml, for CA 2×10^7/ml, neutralizer Tryp-NaCl-TLSH (No. 22). Concerning the activity on Mycobacterium terrae, cf.
(§2) […] After acting for times of 5, 15, 30 and 60 minutes, 1 ml samples of the disinfectant/microbe mixture are taken and transferred into 9 ml of inactivation liquid (0.1% tryptone+0.85% NaCl in double-distilled water+inactivators). After a contact time not exceeding 30 minutes in the inactivation liquid, dilutions (10^−2 and 10^−4 in 0.1% tryptone+0.85% NaCl in double-distilled water) are made up. 0.1 ml samples of the inactivation liquid and the two dilutions are then transferred by spatula onto 3 CSA plates for each. As a control, the respective test microbe suspension is mixed with 10 ml of WSH in place of disinfectant. Subcultures are to be set up from this batch in the same way in parallel with the corresponding action times.
(§3) All subcultures are incubated at 37° C. for 48 hours, in the case of Candida albicans at 37° C. for 72 hours, and the colonies are counted. The reduction is calculated as follows: CFU between 20 and 300 per CSA plate are to be evaluated. After determination of the arithmetic mean of three values, the disinfectant effect (GRt) per unit time is calculated from the formula GRt=logCFU(co) minus logCFU(D) in which CFU(co) is the number of CFU per ml without exposure to the product, and CFU(D) is the number of CFU per ml after exposure to the product.

Staphylococcus aureus = test: as above
Description: as §1, §2, §3

Pseudomonas aeruginosa = test: as above
Description: as §1, §2, §3

Candida albicans = test: as above
Description: as §1, §2, §3

Aspergillus niger = test: as above
Description: as §1, §2, §3

[2] = system: bacteria, fungi and mycobacteria; test: Quantitative suspension tests, summary of activity in words

CCCCC(CC)COCC(O)CO (centres unmarked) [SC 50, 1-(2-Ethylhexyl)glycerol ether]
Activity on Mycobacterium terrae (in words) ([1]; 0.05% by weight, 50° C., 60 minutes): neither 0.05% by weight SC 50 nor 0.75% by weight POE, even acting for a time of 60 minutes, display any activity
Reduction factor ([1]; 30° C., 15′): 0.00
Reduction factor ([1]; 30° C., 30′): 0.00
Reduction factor ([1]; 30° C., 60′): 0.00
Reduction factor ([1]; 40° C., 15′): 0.00
Reduction factor ([1]; 40° C., 30′): 0.00
Reduction factor ([1]; 40° C., 60′): 0.00
Reduction factor ([1]; 50° C., 15′): 3.10
Reduction factor ([1]; 50° C., 30′): 3.34
Reduction factor ([1]; 50° C., 60′): 3.48
Reduction factor ([1]; room temperature, 15′): 0.00
Reduction factor ([1]; room temperature, 30′): 0.00
Reduction factor ([1]; room temperature, 60′): 0.00
Reduction factor (Escherichia coli; 0.05%, 30° C., 15′): 0.13
Reduction factor (Escherichia coli; 0.05%, 30° C., 30′): 0.25
Reduction factor (Escherichia coli; 0.05%, 30° C., 60′): 0.36
Reduction factor (Escherichia coli; 0.05%, 40° C., 15′): 0.00
Reduction factor (Escherichia coli; 0.05%, 40° C., 30′): 0.00
Reduction factor (Escherichia coli; 0.05%, 40° C., 60′): 0.00
Reduction factor (Escherichia coli; 0.05%, 50° C., 15′): 1.17
Reduction factor (Escherichia coli; 0.05%, 50° C., 30′): 1.70
Reduction factor (Escherichia coli; 0.05%, 50° C., 60′): 2.85
Reduction factor (Escherichia coli; 0.05%, room temperature, 15′): 0.00
Reduction factor (Escherichia coli; 0.05%, room temperature, 30′): 0.43
Reduction factor (Escherichia coli; 0.05%, room temperature, 60′): 0.25
Reduction factor (Escherichia coli; 0.1%, 30° C., 15′): 0.54
Reduction factor (Escherichia coli; 0.1%, 30° C., 30′): 0.58
Reduction factor (Escherichia coli; 0.1%, 30° C., 60′): 1.15
Reduction factor (Escherichia coli; 0.1%, 40° C., 15′): 1.84
Reduction factor (Escherichia coli; 0.1%, 40° C., 30′): 3.27
Reduction factor (Escherichia coli; 0.1%, 40° C., 60′): 3.46
Reduction factor (Escherichia coli; 0.1%, 50° C., 15′): 3.74
Reduction factor (Escherichia coli; 0.1%, 50° C., 30′): 4.95
Reduction factor (Escherichia coli; 0.1%, 50° C., 60′): 4.90
Reduction factor (Escherichia coli; 0.1%, room temperature, 15′): 0.00
Reduction factor (Escherichia coli; 0.1%, room temperature, 30′): 0.54
Reduction factor (Escherichia coli; 0.1%, room temperature, 60′): 0.50
Reduction factor (Staphylococcus aureus; 0.05%, 30° C., 15′): 0.00
Reduction factor (Staphylococcus aureus; 0.05%, 30° C., 30′): 0.00
Reduction factor (Staphylococcus aureus; 0.05%, 30° C., 60′): 0.00
Reduction factor (Staphylococcus aureus; 0.05%, 40° C., 15′): 0.70
Reduction factor (Staphylococcus aureus; 0.05%, 40° C., 30′): 0.88
Reduction factor (Staphylococcus aureus; 0.05%, 40° C., 60′): 0.57
Reduction factor (Staphylococcus aureus; 0.05%, 50° C., 15′): 0.58
Reduction factor (Staphylococcus aureus; 0.05%, 50° C., 30′): 0.81
Reduction factor (Staphylococcus aureus; 0.05%, 50° C., 60′): 0.29
Reduction factor (Staphylococcus aureus; 0.05%, room temperature, 15′): 0.00
Reduction factor (Staphylococcus aureus; 0.05%, room temperature, 30′): 0.00
Reduction factor (Staphylococcus aureus; 0.05%, room temperature, 60′): 0.00
Reduction factor (Staphylococcus aureus; 0.1%, 30° C., 15′): 0.78
Reduction factor (Staphylococcus aureus; 0.1%, 30° C., 30′): 0.53
Reduction factor (Staphylococcus aureus; 0.1%, 30° C., 60′): 0.35
Reduction factor (Staphylococcus aureus; 0.1%, 40° C., 15′): 0.97
Reduction factor (Staphylococcus aureus; 0.1%, 40° C., 30′): 1.56
Reduction factor (Staphylococcus aureus; 0.1%, 40° C., 60′): 1.45
Reduction factor (Staphylococcus aureus; 0.1%, 50° C., 15′): 2.44
Reduction factor (Staphylococcus aureus; 0.1%, 50° C., 30′): 4.93
Reduction factor (Staphylococcus aureus; 0.1%, 50° C., 60′): 4.70
Reduction factor (Staphylococcus aureus; 0.1%, room temperature, 15′): 0.00
Reduction factor (Staphylococcus aureus; 0.1%, room temperature, 30′): 0.00
Reduction factor (Staphylococcus aureus; 0.1%, room temperature, 60′): 0.96
Reduction factor (Pseudomonas aeruginosa; 0.05%, 30° C., 15′): 0.00
Reduction factor (Pseudomonas aeruginosa; 0.05%, 30° C., 30′): 0.00
Reduction factor (Pseudomonas aeruginosa; 0.05%, 30° C., 60′): 0.00
Reduction factor (Pseudomonas aeruginosa; 0.05%, 40° C., 15′): 0.00
Reduction factor (Pseudomonas aeruginosa; 0.05%, 40° C., 30′): 0.00
Reduction factor (Pseudomonas aeruginosa; 0.05%, 40° C., 60′): 0.00
Reduction factor (Pseudomonas aeruginosa; 0.05%, 50° C., 15′): 0.00
Reduction factor (Pseudomonas aeruginosa; 0.05%, 50° C., 30′): 0.85
Reduction factor (Pseudomonas aeruginosa; 0.05%, 50° C., 60′): 0.96
Reduction factor (Pseudomonas aeruginosa; 0.05%, room temperature, 15′): 0.00
Reduction factor (Pseudomonas aeruginosa; 0.05%, room temperature, 30′): 0.00
Reduction factor (Pseudomonas aeruginosa; 0.05%, room temperature, 60′): 0.00
Reduction factor (Pseudomonas aeruginosa; 0.1%, 30° C., 15′): 0.00
Reduction factor (Pseudomonas aeruginosa; 0.1%, 30° C., 30′): 0.00
Reduction factor (Pseudomonas aeruginosa; 0.1%, 30° C., 60′): 1.01
Reduction factor (Pseudomonas aeruginosa; 0.1%, 40° C., 15′): 1.03
Reduction factor (Pseudomonas aeruginosa; 0.1%, 40° C., 30′): 1.10
Reduction factor (Pseudomonas aeruginosa; 0.1%, 40° C., 60′): 1.14
Reduction factor (Pseudomonas aeruginosa; 0.1%, 50° C., 15′): 3.55
Reduction factor (Pseudomonas aeruginosa; 0.1%, 50° C., 30′): 3.50
Reduction factor (Pseudomonas aeruginosa; 0.1%, 50° C., 60′): 4.00
Reduction factor (Pseudomonas aeruginosa; 0.1%, room temperature, 15′): 0.00
Reduction factor (Pseudomonas aeruginosa; 0.1%, room temperature, 30′): 0.00
Reduction factor (Pseudomonas aeruginosa; 0.1%, room temperature, 60′): 0.00
Reduction factor (Candida albicans; 0.05%, 30° C., 15′): 0.00
Reduction factor (Candida albicans; 0.05%, 30° C., 30′): 0.00
Reduction factor (Candida albicans; 0.05%, 30° C., 60′): 0.00
Reduction factor (Candida albicans; 0.05%, 40° C., 15′): 0.54
Reduction factor (Candida albicans; 0.05%, 40° C., 30′): 0.45
Reduction factor (Candida albicans; 0.05%, 40° C., 60′): 0.59
Reduction factor (Candida albicans; 0.05%, 50° C., 15′): 0.00
Reduction factor (Candida albicans; 0.05%, 50° C., 30′): 0.00
Reduction factor (Candida albicans; 0.05%, 50° C., 60′): 1.08
Reduction factor (Candida albicans; 0.05%, room temperature, 15′): 0.00
Reduction factor (Candida albicans; 0.05%, room temperature, 30′): 0.00
Reduction factor (Candida albicans; 0.05%, room temperature, 60′): 0.00
Reduction factor (Candida albicans; 0.1%, 30° C., 15′): 0.10
Reduction factor (Candida albicans; 0.1%, 30° C., 30′): −0.08
Reduction factor (Candida albicans; 0.1%, 30° C., 60′): 0.64
Reduction factor (Candida albicans; 0.1%, 40° C., 15′): 0.55
Reduction factor (Candida albicans; 0.1%, 40° C., 30′): 0.46
Reduction factor (Candida albicans; 0.1%, 40° C., 60′): 0.65
Reduction factor (Candida albicans; 0.1%, 50° C., 15′): 1.07
Reduction factor (Candida albicans; 0.1%, 50° C., 30′): 1.53
Reduction factor (Candida albicans; 0.1%, 50° C., 60′): 4.20
Reduction factor (Candida albicans; 0.1%, room temperature, 15′): 0.00
Reduction factor (Candida albicans; 0.1%, room temperature, 30′): 0.00
Reduction factor (Candida albicans; 0.1%, room temperature, 60′): 0.00
Reduction factor (Aspergillus niger; 0.05%, 30° C., 15′): 0.08
Reduction factor (Aspergillus niger; 0.05%, 30° C., 30′): 0.70
Reduction factor (Aspergillus niger; 0.05%, 30° C., 60′): 0.60
Reduction factor (Aspergillus niger; 0.05%, 50° C., 15′): 0.12
Reduction factor (Aspergillus niger; 0.05%, 50° C., 30′): 0.12
Reduction factor (Aspergillus niger; 0.05%, 50° C., 60′): −0.12
Reduction factor (Aspergillus niger; 0.05%, room temperature, 15′): 0.30
Reduction factor (Aspergillus niger; 0.05%, room temperature, 30′): −0.10
Reduction factor (Aspergillus niger; 0.05%, room temperature, 60′): 0.22
Reduction factor (Aspergillus niger; 0.1%, 30° C., 15′): 0.30
Reduction factor (Aspergillus niger; 0.1%, 30° C., 30′): 0.70
Reduction factor (Aspergillus niger; 0.1%, 30° C., 60′): 0.60
Reduction factor (Aspergillus niger; 0.1%, 50° C., 15′): −0.10
Reduction factor (Aspergillus niger; 0.1%, 50° C., 30′): 0.30
Reduction factor (Aspergillus niger; 0.1%, 50° C., 60′): 0.18
Reduction factor (Aspergillus niger; 0.1%, room temperature, 15′): −0.35
Reduction factor (Aspergillus niger; 0.1%, room temperature, 30′): −0.10
Reduction factor (Aspergillus niger; 0.1%, room temperature, 60′): 0.40
Activity (in words) ([2]; 0.1% by weight solution, 50° C.): broad activity on gram-positive and gram-negative bacteria, yeasts and mycobacteria
Activity (in words) ([2]; 0.1% by weight, low temperature): virtually no antimicrobial activity
Activity on bacteria (gram-positive and gram-negative) and mycobacteria (in words) ([2]; above 25° C.): particularly active
Activity on yeasts (e.g. Candida albicans) and moulds (e.g. Aspergillus niger) (in words) ([2]; use concentration 0.1% by weight): still requires improvement
